Columns and labels:
human SERT = target: T1, human SERT (Homo sapiens, UniProt P31645); assay: Human SERT 3H-citalopram binding; conditions: HEK293 membranes expressing the human SERT, rt 1 h
T1 construct: expressed in transfected cells; host or cells: HEK293 membranes
Description: Homogenized HEK293 (Human Embryonic Kidney) membranes expressing the human SERT were incubated with ^3H-citalopram (SERT) at rt for 1 h in 50 mM Tris, 120 mM NaCl, 5 mM KCl (pH 7.4). […] The membranes were washed and the radioactivity was counted as above.

human H3 receptor [1] = target: T2, human H3 receptor (Homo sapiens, UniProt Q9Y5N1); assay: Cyclic AMP accumulation (β-galactosidase reporter); assay type: cell-based; conditions: for pA2: SK-N-MC cells expressing human H3 receptor and reporter, histamine agonist, forskolin 5 μM, Schild regression of pEC50 values
T2 construct: expressed in transfected cells
Description: Sublines of SK—N-MC cells were created that expressed a reporter construct and the human H3 receptor. The reporter gene (β-galactosidase) is under the control of multiple cyclic AMP responsive elements. In 96-well plates, histamine was added directly to the cell media followed 5 min later by an addition of forskolin (5 μM final concentration). When appropriate, antagonists were added 10 min prior to agonist addition. After a 6-h incubation at 37° C., the media was aspirated and the cells washed with 200 μL of phosphate-buffered saline followed by a second aspiration. Cells were lysed with 25 μL 0.1× assay buffer (10 mM Na-phosphate, pH 8, 0.2 mM MgSO4, 0.01 mM MnCl2) and incubated at rt for 10 min. […] Color was developed using 25 μL of 1 mg/mL substrate solution (chlorophenolred β-D galactopyranoside; Roche Molecular Biochemicals, Indianapolis, Ind.).

human H3 receptor [2] = target: T2, human H3 receptor; assay: H3 receptor binding; conditions: cloned human H3 receptor stably expressed in SK-N-MC cells
Rat SERT = target: T3, Rat SERT (Rattus norvegicus, UniProt P31652); assay: Rat brain SERT [3H]-citalopram binding; conditions: rat brain membranes, 0.6 nM [3H]-Citalopram, 60 min at 25° C.
T3 construct: A rat brain without cerebellum (Zivic Laboratories, Inc.—Pittsburgh, Pa.) was homogenized; tissue Zivic Laboratories, Inc; host or cells: rat brain without cerebellum, membrane preparation
Description: The supernatant was removed and re-centrifuged at 15,000 rpm for 30 min. […] Membranes were incubated with 0.6 nM [^3H]-Citalopram plus/minus test compounds for 60 min at 25° C. and harvested by rapid filtration over GF/C glass fiber filters (pretreated with 0.3% polyethylenimine) followed by four washes with ice-cold buffer.

T3 sequence (P31652 whole entry): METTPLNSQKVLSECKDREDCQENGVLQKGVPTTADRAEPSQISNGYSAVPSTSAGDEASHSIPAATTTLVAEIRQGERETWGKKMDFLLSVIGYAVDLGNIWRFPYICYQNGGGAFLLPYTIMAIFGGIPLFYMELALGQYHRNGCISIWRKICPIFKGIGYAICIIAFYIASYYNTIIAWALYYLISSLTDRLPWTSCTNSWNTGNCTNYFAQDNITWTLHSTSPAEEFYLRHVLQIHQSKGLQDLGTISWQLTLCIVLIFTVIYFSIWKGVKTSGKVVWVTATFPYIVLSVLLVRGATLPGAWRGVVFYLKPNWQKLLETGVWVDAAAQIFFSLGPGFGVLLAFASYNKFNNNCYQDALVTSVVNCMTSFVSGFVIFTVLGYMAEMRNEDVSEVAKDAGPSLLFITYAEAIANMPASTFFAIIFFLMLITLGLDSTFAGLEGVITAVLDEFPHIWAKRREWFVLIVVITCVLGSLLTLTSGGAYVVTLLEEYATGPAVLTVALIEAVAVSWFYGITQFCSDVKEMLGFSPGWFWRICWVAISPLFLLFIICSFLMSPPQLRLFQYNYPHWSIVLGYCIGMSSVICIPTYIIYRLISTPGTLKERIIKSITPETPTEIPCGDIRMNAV
T2 sequence (Q9Y5N1 whole entry): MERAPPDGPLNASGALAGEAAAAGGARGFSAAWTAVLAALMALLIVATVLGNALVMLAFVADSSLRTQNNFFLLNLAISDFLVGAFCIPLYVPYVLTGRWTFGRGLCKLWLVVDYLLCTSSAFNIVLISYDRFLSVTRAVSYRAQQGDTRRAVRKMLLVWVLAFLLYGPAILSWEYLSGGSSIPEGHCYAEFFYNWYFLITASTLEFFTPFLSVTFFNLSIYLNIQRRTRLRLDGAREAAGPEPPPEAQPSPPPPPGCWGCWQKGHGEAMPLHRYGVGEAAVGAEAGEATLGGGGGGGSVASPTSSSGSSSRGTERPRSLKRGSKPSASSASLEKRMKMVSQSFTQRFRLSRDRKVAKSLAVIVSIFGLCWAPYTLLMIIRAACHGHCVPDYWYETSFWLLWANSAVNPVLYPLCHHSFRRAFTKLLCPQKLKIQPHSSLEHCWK
T1 sequence (P31645 whole entry): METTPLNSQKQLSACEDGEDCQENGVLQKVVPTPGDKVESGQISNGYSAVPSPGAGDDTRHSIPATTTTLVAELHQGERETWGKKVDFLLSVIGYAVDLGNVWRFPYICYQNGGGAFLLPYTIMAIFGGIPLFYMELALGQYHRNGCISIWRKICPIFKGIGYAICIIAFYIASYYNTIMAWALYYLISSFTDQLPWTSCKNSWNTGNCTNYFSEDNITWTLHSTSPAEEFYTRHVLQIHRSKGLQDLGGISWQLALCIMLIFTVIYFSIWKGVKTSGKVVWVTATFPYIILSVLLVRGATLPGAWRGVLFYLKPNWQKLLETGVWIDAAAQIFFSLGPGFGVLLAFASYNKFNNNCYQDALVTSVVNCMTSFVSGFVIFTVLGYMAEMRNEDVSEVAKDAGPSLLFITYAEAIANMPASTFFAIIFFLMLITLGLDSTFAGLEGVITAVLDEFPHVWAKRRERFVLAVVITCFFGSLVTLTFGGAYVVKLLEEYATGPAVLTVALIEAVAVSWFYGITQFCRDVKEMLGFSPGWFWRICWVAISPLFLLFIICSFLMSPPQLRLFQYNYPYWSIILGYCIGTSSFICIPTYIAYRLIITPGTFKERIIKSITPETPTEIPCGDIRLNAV

## C(#Cc1ccc(Oc2cccnc2)c(CNC2CC2)c1)CCN1CCOCC1 [Example 23, Cyclopropyl-[5-(4-morpholin-4-yl-but-1-ynyl)-2-(pyridine-3-yloxy)-benzyl]-amine]
Human SERT
  Ki: 58 nM
Human H3 receptor [1]; read-out: pA2 (converted)
  Kb: 0.251 nM
Human H3 receptor [2]
  Ki: 0.7 nM
Rat SERT
  Ki: 18 nM

## CNCc1cc(C#CCCN2CCOCC2)ccc1Oc1ccc(Cl)c(C(F)(F)F)c1 [Example 27, [2-(4-Chloro-3-trifluoromethyl-phenoxy)-5-(4-morpholin-4-yl-but-1-ynyl)-benzyl]-methyl-amine]
Human SERT
  Ki: 17 nM
Human H3 receptor [1]
  pA2: 7.89
Human H3 receptor [2]
  Ki: 13 nM
Rat SERT
  Ki: 7.3 nM

## CNCc1cc(C#CCCN2CCC(F)CC2)ccc1Oc1ccc(SC)cc1 [Example 11, [5-[4-(4-Fluoro-piperidin-1-yl)-but-1-ynyl]-2-(4-methylsulfanyl-phenoxy)-benzyl]-methyl-amine]
Human SERT
  Ki: 0.9 nM
Human H3 receptor [1]
  pA2: 8.12
Human H3 receptor [2]
  Ki: 6 nM
Rat SERT
  Ki: 0.6 nM
